The numbers were not newly measured in patent US6365216B1, “Particles of N-[N-(3,3-dimethylbutyl)-L-α-aspartyl]-L-phenylalanine 1-methyl ester” (The NutraSweet Company, priority 1999, dated 2002), which cites them from elsewhere.

For the series the following is noted: times sweeter than sugar (sucrose).

In the case of `COC(=O)C(Cc1ccccc1)NC(=O)C(CC(=O)O)NCCC(C)(C)C` [neotame, N-[N-(3,3-dimethylbutyl)-L-α-aspartyl]-L-phenylalanine 1-methyl ester], the sweetness potency entry was “about 8000 X”.
